Results reported in the supplement of paper PMC10331698.
± gives the standard deviation of the averaged measurements.

How the values were obtained:
Assay in all cases: level (log10 ratio to DMSO vehicle control); higher = higher biomarker level / cell amount than vehicle control
Conditions in all cases: in DMSO
[1] = compound: FC(F)(F)C(F)(F)C(F)(F)C(F)(F)C(F)(F)CCI [1-Iodo-1H,1H,2H,2H-perfluoroheptane]
Procedure: (§1)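 BioMAP Diversity Plus panel of 12 human primary cell co-culture systems (3C, 4H, LPS, SAg, BT, BF4T, BE3C, CASM3C, HDF3CGF, KF3CT, MyoF, Mphg). Compounds were added 1 h before stimulation and left for 24 h (MyoF 48 h; BT 72 h for soluble read-outs or 6 d for IgG). Biomarkers were read by ELISA, cytotoxicity by SRB, PBMC viability and proliferation by Alamar Blue. Each well value was divided by the mean of 8 DMSO control wells on the same plate and log10 transformed; duplicate blinded samples were tested at 4 concentrations.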

[2] = compound: FC(F)(F)C(F)(C(F)(F)F)C(F)(F)C(F)(F)CC1CO1 [3-(Perfluoro-3-methylbutyl)-1,2-propenoxide]
Procedure: as §1

[3] = compound: O=C(O)C(F)(F)C(F)(F)C(F)(F)C(F)(F)C(F)(F)C(F)(F)F [Perfluoroheptanoic acid]
Procedure: as §1

[4] = compound: NCC(F)(F)C(F)(F)C(F)(F)C(F)(F)C(F)(F)C(F)(F)C(F)(F)F [1H,1H-Perfluorooctylamine]
Procedure: as §1

[5] = compound: COC(=O)CCC(F)(F)C(F)(F)C(F)(F)C(F)(F)F [Methyl 2H,2H,3H,3H-perfluoroheptanoate]
Procedure: as §1

[6] = compound: FC(F)(F)C(F)(F)C(F)(F)C(F)(F)C(F)(F)C(F)(F)I [Perfluoro-1-iodohexane]
Procedure: as §1

[7] = compound: O=C(O)C(F)(F)C(F)(F)F [Perfluoropropanoic acid]
Procedure: as §1

Test System | level (log10) ([1]; 6700 nM) | level (log10) ([1]; 20000 nM) | level (log10) ([1]; 60000 nM) | level (log10) ([2]; 6700 nM) | level (log10) ([2]; 20000 nM) | level (log10) ([3]; 6700 nM) | level (log10) ([3]; 20000 nM) | level (log10) ([3]; 60000 nM) | level (log10) ([4]; 6700 nM) | level (log10) ([4]; 20000 nM) | level (log10) ([4]; 60000 nM) | level (log10) ([5]; 6700 nM) | level (log10) ([5]; 20000 nM) | level (log10) ([5]; 60000 nM) | level (log10) ([6]; 6700 nM) | level (log10) ([6]; 20000 nM) | level (log10) ([6]; 60000 nM) | level (log10) ([7]; 6700 nM) | level (log10) ([7]; 20000 nM) | level (log10) ([7]; 60000 nM)
HDF3CGF:CXCL9/MIG | -0.0255 ± 0.044 | -0.0445 ± 0.0092 | -0.149 ± 0.11 | 0.0165 ± 0.012 | 0.0155 ± 0.016 | -0.009 ± 0.0071 | -0.002 ± 0.021 | 0.0165 ± 0.0064 | -0.006 ± 0.018 | -0.0205 ± 0.011 | -0.0115 ± 0.005 | 0.014 | 0.0255 ± 0.021 | -0.0225 ± 0.013 | 0 ± 0.0028 | -0.021 ± 0.0057 | -0.0325 ± 0.018 | -0.019 ± 0.0014 | -0.01 ± 0.014 | -0.0195 ± 0.026
BE3C:SRB | -0.003 ± 0.0057 | -0.0105 ± 0.0021 | -0.0085 ± 0.012 | -0.0005 ± 0.00071 | 0.0015 ± 0.0021 | -0.006 ± 0.0071 | -0.0065 ± 0.0035 | 0.0035 ± 0.011 | 0 | 0.0035 ± 0.00071 | 0.013 ± 0.024 | -0.004 ± 0.0028 | -0.0015 ± 0.0021 | 0.002 | -0.0125 ± 0.005 | 0.001 ± 0.017 | 0 ± 0.013 | -0.0015 ± 0.0021 | -0.003 | 0.0035 ± 0.00071
BE3C:uPA | 0.013 ± 0.011 | -0.0005 ± 0.019 | -0.0025 ± 0.033 | 0.0005 ± 0.018 | 0.004 ± 0.021 | -0.002 ± 0.0042 | 0.0055 ± 0.0035 | 0.0255 ± 0.015 | -0.011 ± 0.011 | -0.0135 ± 0.0021 | -0.002 ± 0.014 | -0.013 ± 0.042 | -0.0155 ± 0.018 | -0.0155 ± 0.012 | 0.0175 ± 0.015 | -0.0005 ± 0.0035 | 0.001 ± 0.0085 | -0.0165 ± 0.044 | 0.0015 ± 0.044 | 0.003 ± 0.041
HDF3CGF:CD54/ICAM-1 | -0.0065 ± 0.013 | -0.0215 ± 0.00071 | -0.0195 ± 0.0064 | -0.013 ± 0.021 | -0.014 ± 0.041 | 0.004 ± 0.02 | -0.0145 ± 0.005 | -0.0255 ± 0.018 | -0.003 ± 0.013 | -0.0055 ± 0.011 | -0.0095 ± 0.0078 | -0.0095 ± 0.0092 | 0.012 ± 0.0028 | -0.0025 ± 0.028 | -0.014 ± 0.0099 | -0.0225 ± 0.013 | -0.0255 ± 0.0078 | 0.007 ± 0.016 | 0.0065 ± 0.005 | -0.0045 ± 0.00071
3C:CCL2/MCP-1 | -0.0135 ± 0.0021 | -0.009 ± 0.0099 | 0.0045 ± 0.025 | -0.0115 ± 0.0064 | -0.0125 ± 0.025 | 0.0015 ± 0.015 | -0.009 ± 0.013 | 0.032 ± 0.045 | -0.003 ± 0.0099 | 0.0095 ± 0.021 | 0.0275 ± 0.028 | 0.011 ± 0.0085 | 0.007 ± 0.013 | 0.0285 ± 0.028 | -0.0105 ± 0.0021 | -0.006 ± 0.02 | 0.003 ± 0.047 | -0.041 ± 0.048 | -0.0145 ± 0.049 | 0.0435 ± 0.073
KF3CT:uPA | -0.001 ± 0.034 | 0.0145 ± 0.022 | 0.0125 ± 0.00071 | -0.0045 ± 0.0021 | -0.021 ± 0.017 | 0.007 ± 0.016 | 0.0065 ± 0.0021 | 0.0075 ± 0.013 | -0.017 ± 0.0028 | -0.0135 ± 0.0078 | -0.0225 ± 0.019 | -0.007 ± 0.033 | 0.0005 ± 0.0092 | -0.008 ± 0.025 | 0.013 ± 0.0042 | 0.006 ± 0.023 | 0.007 ± 0.017 | -0.0085 ± 0.022 | 0.032 ± 0.027 | 0.0045 ± 0.021
CASM3C:CD87/uPAR | 0.008 ± 0.016 | -0.0075 ± 0.0078 | -0.0265 ± 0.037 | -0.013 ± 0.016 | 0.002 ± 0.017 | -0.0005 ± 0.0078 | -0.019 ± 0.031 | -0.0055 ± 0.036 | -0.044 ± 0.083 | -0.0315 ± 0.043 | 0.025 ± 0.047 | -0.029 ± 0.035 | -0.0275 ± 0.026 | -0.0185 ± 0.022 | 0 ± 0.0085 | -0.0105 ± 0.03 | 0.003 ± 0.021 | -0.0215 ± 0.019 | -0.008 ± 0.038 | 0.001 ± 0.013
HDF3CGF:TIMP-2 | 0.0155 ± 0.023 | 0.004 ± 0.033 | -0.019 ± 0.035 | -0.043 ± 0.081 | -0.0475 ± 0.1 | -0.011 ± 0.018 | -0.012 ± 0.017 | 0.014 ± 0.0085 | -0.03 ± 0.059 | -0.013 ± 0.052 | -0.0245 ± 0.016 | 0.0295 ± 0.019 | -0.0065 ± 0.03 | 0.0195 ± 0.043 | 0.017 ± 0.038 | 0.0295 ± 0.018 | 0.031 ± 0.045 | -0.0495 ± 0.028 | -0.0155 ± 0.05 | -0.037 ± 0.073
CASM3C:M-CSF | -0.0055 ± 0.035 | -0.0145 ± 0.011 | -0.0265 ± 0.0092 | -0.0175 ± 0.0021 | 0.008 ± 0.042 | -0.004 ± 0.028 | -0.005 ± 0.028 | 0.0035 ± 0.049 | -0.059 ± 0.027 | -0.0055 ± 0.0078 | 0.0115 ± 0.061 | -0.0155 ± 0.016 | -0.031 ± 0.021 | 0.013 ± 0.054 | -0.0125 ± 0.025 | 0.0055 ± 0.032 | 0.0085 ± 0.043 | -0.0265 ± 0.16 | 0.0055 ± 0.0092 | 0.034 ± 0.065
MyoF:CXCL8/IL-8 | -0.0015 ± 0.019 | 0.028 ± 0.018 | 0.043 ± 0.038 | 0.0045 ± 0.00071 | 0.0185 ± 0.0021 | 0.002 ± 0.0042 | 0.0205 ± 0.005 | 0.0175 ± 0.035 | 0.0025 ± 0.021 | -0.0095 ± 0.0035 | -0.002 ± 0.023 | -0.0085 ± 0.00071 | -0.001 ± 0.0071 | 0.0155 ± 0.039 | 0.021 ± 0.041 | 0.023 ± 0.041 | 0.0385 ± 0.028 | -0.0055 ± 0.029 | -0.004 ± 0.085 | 0.022 ± 0.075
CASM3C:Proliferation | -0.034 ± 0.0071 | -0.101 ± 0.062 | -0.106 ± 0.054 | -0.001 ± 0.047 | 0.0195 ± 0.071 | -0.023 ± 0.0085 | -0.008 ± 0.035 | 0.0045 ± 0.053 | 0.0025 ± 0.012 | 0.005 ± 0.016 | -0.0095 ± 0.0092 | -0.001 ± 0.0028 | -0.038 ± 0.0042 | 0.0025 ± 0.0035 | 0.023 ± 0.0071 | -0.02 ± 0.013 | -0.021 ± 0.067 | 0.0065 ± 0.0035 | -0.0355 ± 0.063 | 0.017 ± 0.033
KF3CT:TIMP-2 | -0.012 ± 0.035 | -0.03 ± 0.028 | -0.0245 ± 0.03 | -0.003 ± 0.0042 | 0.0015 ± 0.042 | 0.006 ± 0.021 | 0.0085 ± 0.025 | 0.031 ± 0.017 | -0.013 | -0.01 ± 0.018 | -0.017 ± 0.013 | -0.004 ± 0.017 | -0.012 ± 0.011 | -0.0125 ± 0.043 | 0.0015 ± 0.013 | 0.0135 ± 0.019 | 0.0035 ± 0.011 | 0.014 ± 0.062 | -0.0115 ± 0.0092 | 0.0275 ± 0.012
HDF3CGF:CXCL8/IL-8 | 0.001 ± 0.0099 | 0.011 ± 0.0028 | 0.0225 ± 0.0064 | 0.001 ± 0.013 | 0.006 ± 0.0028 | -0.0055 ± 0.0078 | -0.0055 ± 0.0064 | 0.0095 ± 0.013 | -0.0025 ± 0.005 | -0.018 ± 0.0099 | -0.002 ± 0.0042 | -0.006 ± 0.013 | -0.01 ± 0.024 | -0.0035 ± 0.0021 | -0.0055 ± 0.0021 | -0.002 ± 0.0057 | -0.024 ± 0.037 | -0.0055 ± 0.0021 | 0.007 ± 0.011 | 0.017 ± 0.0057
lMphg:CCL3/MIP-1alpha | 0.0165 ± 0.032 | 0.003 ± 0.021 | 0.0185 ± 0.08 | -0.007 ± 0.0042 | 0.0345 ± 0.023 | -0.0265 ± 0.013 | -0.0075 ± 0.0078 | 0.018 ± 0.017 | 0 ± 0.0099 | -0.0215 ± 0.016 | 0.0035 ± 0.044 | -0.0315 ± 0.005 | -0.013 ± 0.0028 | -0.004 ± 0.045 | 0.033 ± 0.031 | 0.023 ± 0.0042 | 0.0285 ± 0.033 | -0.0105 ± 0.023 | -0.0235 ± 0.0021 | 0.0115 ± 0.013
MyoF:Collagen III | 0.0085 ± 0.029 | 0.0185 ± 0.0092 | 0.041 ± 0.013 | -0.004 ± 0.0099 | -0.0275 ± 0.0078 | -0.013 ± 0.018 | -0.011 ± 0.018 | -0.0055 ± 0.0078 | -0.007 ± 0.0057 | 0.003 ± 0.014 | 0.01 | -0.0085 ± 0.0092 | -0.007 ± 0.0014 | -0.015 ± 0.0057 | -0.0225 ± 0.0064 | -0.039 ± 0.0057 | -0.132 ± 0.036 | 0.0165 ± 0.012 | 0.0135 ± 0.016 | 0.0385 ± 0.015
